Earlier results in patent US20050215571A1, “Therapeutic combination for cognititon enhancement and psychotic disorders” (Pfizer Inc., priority 2003, published 2005).

Assays:
[1] = not given; remark: listed apart in the source

Question: Which results are given for O=C1Cc2cc(CCN3CCN(c4nsc5ccccc45)CC3)c(Cl)cc2N1 [Ziprasidone, 5-[2-[4-(1,2-benzisothiazol-3-yl)piperazin-1-yl]ethyl]-6-chloroindolin-2-one]?
Answer: half-life (in vivo): 6 to 7 h; Oral bioavailability (oral, taken with food): approximately 60%; protein binding [1]: extensive
